From patent US8846708B2, “Salt of a pyrimidin derivative” (Laboratorios Senosiain S.A. de C.V., priority 2010, dated 2014)

Assays:
[1] = cited from earlier work
physchem = experiment: physchem
Description: Additionally, a comparative solubility test was performed between rosuvastatin calcium and rosuvastatin lysine.

proteins = conditions: cited from earlier work
[2] = in vivo; cited from earlier work
[3] = Description / flowability of the salt powder; format: physicochemical

Structure (SMILES)	Solubility in water [1]	Solubility, HCl 10% (physchem)	Solubility, Methanol (physchem)	solubility (physchem; aqueous buffer) [mg/mL]	solubility (physchem; organic solvent or mixture) [mg/mL]	solubility (physchem; water) [mg/mL]	Binding to proteins (proteins) [%]	Absolute bioavailability [2]	Excretion in feces [2] [%]	Excretion in urine [2] [%]	Description: flowability [3]
CC(C)c1nc(N(C)S(C)(=O)=O)nc(-c2ccc(F)cc2)c1/C=C/[C@@H](O)C[C@@H](O)CC(=O)O [Rosuvastatin, (3R,5S,6E)-7-[4-(4-fluorophenyl)-2-(N-methylmethanesulfonamide)-6-(propan-2-yl)pyrimidin-5-yl]-3,5-dihydroxihept-6-enoic acid]	slightly soluble in water										
CC(C)c1nc(N(C)S(C)(=O)=O)nc(-c2ccc(F)cc2)c1/C=C/[C@@H](O)C[C@@H](O)CC(=O)O [rosuvastatin calcium, (3R,5S,6E)-7-[4-(4-fluorophenyl)-2-(N-methylmethanesulfonamide)-6-(propan-2-yl)pyrimidin-5-yl]-3,5-dihydroxihept-6-enoic acid]		It sticks to the bottom of the container.	Taffy	0.6	10	5.3	88	approximately 20%	90	10	without flowability.
